Measured values reported in BindingDB's records for doi:10.1080/14756360701546413 (Dumlupinar University, 2008).

Target: Glutathione-disulfide reductase (Escherichia coli O157:H7, UniProt A0A0H3JIZ9)
Test: Enzyme Assay
Description: The enzyme activities in the absence of drugs or chemicals were taken as 100%. For each drug or chemical, an activity%-(drug) graph was drawn and drug concentrations producing 50% inhibition were calculated for the inhibitors.

Chain of Glutathione-disulfide reductase (A0A0H3JIZ9 whole entry): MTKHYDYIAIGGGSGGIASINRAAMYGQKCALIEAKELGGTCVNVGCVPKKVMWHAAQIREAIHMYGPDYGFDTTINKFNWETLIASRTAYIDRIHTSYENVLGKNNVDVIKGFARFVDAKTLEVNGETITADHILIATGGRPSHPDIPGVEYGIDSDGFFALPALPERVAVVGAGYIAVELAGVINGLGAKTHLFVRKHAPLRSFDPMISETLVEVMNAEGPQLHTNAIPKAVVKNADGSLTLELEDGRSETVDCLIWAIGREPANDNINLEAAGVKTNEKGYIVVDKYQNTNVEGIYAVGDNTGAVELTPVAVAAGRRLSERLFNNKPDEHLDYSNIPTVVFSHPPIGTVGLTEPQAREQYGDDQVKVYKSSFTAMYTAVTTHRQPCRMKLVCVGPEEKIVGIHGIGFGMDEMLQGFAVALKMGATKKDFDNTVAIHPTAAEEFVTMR

| Compound | IC50 [µM] | Ki [µM] |
| --- | --- | --- |
| CC(CCC(=O)Nc1nnc(S(N)(=O)=O)s1)C1CCC2C3CCC4CC(O)CCC4(C)C3CCC12C (centres undefined) [Sulfonamide derivative, 1] | 47.1 | 72.3 |
| CC(CCC(=O)Nc1nnc(S(N)(=O)=O)s1)C1CCC2C3C(O)CC4CC(O)CCC4(C)C3CCC12C (centres undefined) [Sulfonamide derivative, 2] | 4.5 | 6.1 |
